Data taken from patent publication US20250057865A1, “ANTIVIRAL SUPPLEMENT FORMULATIONS FOR HERPESVIRUS INFECTIONS” (priority 2023, published 2025).

How the values were obtained:
[1] = in vivo; cited from earlier work
[2] = tested on: human foreskin fibroblasts (HFFs); settings: Buffered DMEM, 7 d
Procedure: (§6) For the cell effect in absence of virus assay, ARPE-19 cells or HFFs were seeded into 96-well plates and grown for 72 h as described above. Cells were treated with Test Composition in either unbuffered or buffered medium ranging from 1 μM to 100 mM (1:10 dilution). Cidofovir was tested in a range from 0.001 to 100 μM (1:10 dilution). Ganciclovir was tested in a range from 0.002 to 200 μM (1:10 dilution). ARPE-19 cells were treated with Test Composition or Cidofovir for 72 h, then cells were stained with Neutral Red dye and absorbance was measured at 540 nm. HFFs were treated with original Test Composition or Ganciclovir for 7 d, then cells were stained with Neutral Red dye and absorbance was measured at 540 nm.

[3] = tested on: HCMV-eGFP-fLuc; experiment: HCMV bioluminescence dose-response assay in HFFs; type: cell-based, human cytomegalovirus; settings: unbuffered and buffered medium
Procedure: (§1) VZV- or HCMV-infected cells were measured by bioluminescence imagining in the efficacy or dose-response assay. Assays were performed as previously described, with a few modifications. […] Next, cells were infected at a MOI of approximately 0.05 with either VZV-ORF57-Luc or HCMV-eGFP-fLuc, both which expresses firefly luciferase, in either standard DMEM (10% FBS) or DMEM (10% FBS) buffered with 3.024 g/L sodium bicarbonate.
(§2) Antiviral Test Compositions were prepared in the two media, added at the time of infection, and remained for the duration of the assay. VZV cultures were scanned at 72 h post-infection, and HCMV cultures were scanned at 7 days post-infection. Each plate contained untreated wells in each media condition (unbuffered or buffered) as a baseline. Test Composition in unbuffered medium, Test Composition in buffered medium, cidofovir positive control (CDV; for VZV) or ganciclovir positive control (GCV; for HCMV) in unbuffered medium, and CDV (for VZV) or GCV (for HCMV) in buffered medium. All graphs, EC50, and CC50 calculations were performed using GraphPad. Test Composition concentrations ranged from 3.2 μM to 50 mM in a 1:5 dilution series based on Lysine concentrations. Cidofovir concentrations ranged from 0.00128 to 20 μM in a 1:5 dilution series. Ganciclovir concentrations ranged from 0.0064 to 100 μM in a 1:5 dilution series.

[4] = in vitro; settings: human, human foreskin fibroblasts (HFFs)
Procedure: as §6

[5] = tested on: ARPE-19 cells; experiment: Cell effect in absence of virus assay, ARPE-19 cells, 72 h, Neutral Red; type: cell-based; settings: ARPE-19, Buffered DMEM
[6] = as above; type: cell-based; settings: human, ARPE-19 cells, ARPE-19, Unbuffered DMEM
[7] = tested on: VZV-ORF57-Luc; experiment: microbe, parasite or virus in culture; type: cell-based, varicella zoster virus; settings: for EC50: Human alphaherpesvirus 3, ARPE-19, 72 h, 72 h
Procedure: as §1, §2

[8] = tested on: HSV-2-Luc; experiment: microbe, parasite or virus in culture; type: cell-based, herpes simplex virus 2; settings: for efficacy against HSV-2 (in words): ARPE-19, 24 h post-infection; for EC50: Human alphaherpesvirus 2, ARPE-19, 24 h, 24 h; for SI (CC50/EC50): Table 10, HSV2, buffered medium
Procedure: (§3) Next, cells were infected at a MOI of 0.05 with either HSV-1 R8411 or HSV-2-Luc, both which expresses firefly luciferase, in either standard DMEM medium (10% FBS) or standard DMEM medium (10% FBS) buffered with 3.024 g/L sodium bicarbonate. Treatments were prepared in the different medium conditions and added at the time of infection. All assays were imaged at 24 h post-infection and/or treatment. The compounds tested for this experiment included: Test Composition in unbuffered medium, Test Composition in buffered medium, acyclovir in unbuffered medium and acyclovir in buffered medium. All graphs, EC50, CC50, and CC50/EC50 calculations were performed using GraphPad software based on Lysine equivalent concentrations.
(§4) HSV-1 or HSV-2 infected cells were measured by bioluminescence imagining in the dose-response assay. Each plate contained a set of untreated wells in each media condition (unbuffered or buffered) to be used as baseline. Test composition concentrations ranged from 3.2 μM to 50 mM in a 1:5 dilution series. Acyclovir concentrations ranged from 0.00256 to 40 μM in a 1:5 dilution series.
(§5) Assays were performed as previously described. […] Next, cells were infected at a MOI of approximately 0.05 with either HSV-1 R8411 or HSV-2 MS-Luciferase, both which expresses firefly luciferase, in DMEM (10% FBS) buffered with 3.024 g/L sodium bicarbonate. Antiviral compounds were prepared in the buffered media, added at the time of infection, and remained for the duration of the assay. Both HSV1 and HSV2 cultures were scanned at 24 h post-infection. Each plate contained untreated wells as a baseline for comparison. The solutions evaluated included original Test Composition and various sets of its components, as well as acyclovir (ACV; control). The table below includes a breakdown of all the different component formulations. Graphs were produced, EC50, and CC50 calculations were performed using GraphPad. Concentrations for Test Composition and its components ranged from 3.2 μM to 50 mM in a 1:5 dilution series. Acyclovir concentrations ranged from 0.00256 to 40 μM in a 1:5 dilution series.

[9] = in vitro; type: cell-based; settings: human, Table 10 HSV1 half, ARPE-19, buffered medium
Procedure: as §5

[10] = tested on: HSV-1 R8411; experiment: microbe, parasite or virus in culture; type: cell-based, herpes simplex virus 1; settings: for efficacy against HSV-1 (in words): ARPE-19, 24 h post-infection; for EC50: Human alphaherpesvirus 1, ARPE-19, 24 h, 24 h; for SI (CC50/EC50): Table 10, HSV1, buffered medium
Procedure: as §3, §4, §5

[11] = adults; cited from earlier work

SMILES: CC(C)[C@H](N)C(=O)OCCOCn1cnc2c(=O)[nH]c(N)nc21 [Valacyclovir]
- fraction eliminated renally [1]: 89%

SMILES: Nc1nc(O)c2ncn(COC(CO)CO)c2n1 [Ganciclovir, ganciclovir]
- CC50 [2]: > 200 µM
- efficacy against HCMV (in words) [3]: not effective
- CC50 at 7 d [4]: > 200 µM

SMILES: Nc1ccn(C[C@@H](CO)OCP(=O)(O)O)c(=O)n1 [Cidofovir, cidofovir]
- CC50 [5]: > 100 µM
- CC50 at 72 h [6]: > 100 µM
- efficacy against VZV (in words) ([7]; ARPE-19, unbuffered and buffered medium): effective
- EC50 ([7]; VZV, ARPE-19, Buffered DMEM): 19 µM
- EC50 ([7]; VZV, ARPE-19, Unbuffered DMEM): 1.72 µM
- increase of EC50 in buffered medium versus unbuffered medium ([7]; VZV): 10 fold
- SI (CC50/EC50) ([7]; VZV, Buffered DMEM): 5.3
- SI (CC50/EC50) ([7]; VZV, Unbuffered DMEM): 58.2

SMILES: Nc1nc2c(ncn2COCCO)c(=O)[nH]1 [Acyclovir, acyclovir]
- efficacy against HSV-2 (in words) [8]: worked
- efficacy against HSV-2 (in words) ([8]; listed as acyclovir): effective
- EC50 ([8]; HSV-2, ARPE-19, Buffered DMEM): 6.66 µM
- EC50 ([8]; HSV-2, ARPE-19, Unbuffered DMEM): 7.89 µM
- EC50 ([8]; Table 10, HSV2, ARPE-19, buffered medium, curves plotted as L-lysine HCl or acyclovir concentration (uM), FIG. 6): 33.1 µM
- SI (CC50/EC50) [8]: 3.02
- CC50 at 24 h [9]: ≥ 100 µM
- efficacy against HSV-1 (in words) [10]: worked
- efficacy against HSV-1 (in words) ([10]; listed as acyclovir): effective
- EC50 ([10]; HSV-1, ARPE-19, Buffered DMEM (sodium bicarbonate)): 0.156 µM
- EC50 ([10]; HSV-1, ARPE-19, Unbuffered DMEM, Lysine equivalent concentration): 0.645 µM
- EC50 ([10]; Table 10, HSV1, ARPE-19, buffered medium, curves plotted as L-lysine HCl or acyclovir concentration (uM), FIG. 5): 0.225 µM
- SI (CC50/EC50) [10]: 444.44

SMILES: Cl.NCCCC[C@H](N)C(=O)O [Solution 2, L-lysine monohydrochloride]
- rank of efficacy among test solutions 1-11 against HSV2 ([8]; ARPE-19, buffered medium): least effective
- SI (CC50/EC50) [8]: 2.5
- rank of efficacy among test solutions 1-11 against HSV1 ([10]; ARPE-19, buffered medium): least effective
- SI (CC50/EC50) [10]: 5

SMILES: Cc1ncc(CO)c(CO)c1O [Vitamin B6, Pyridoxine]
- intake usually safe [11]: up to 200 mg per day
